Laboratory results taken from patent US20200165194A1, “ADDITIVE COMPOSITION FOR CULTURE MEDIUM, ADDITIVE COMPOUND FOR CULTURE MEDIUM, AND METHOD FOR CULTURE OF CELLS OR TISSUE USING SAME” (NISSAN CHEMICAL CORPORATION, priority 2017, published 2020).

Assays:
Type in all cases: cell-based
[1] = tested on: SKOV3 cells (human ovarian cancer-derived cell line); test: Cell proliferation activity in three-dimensional medium FCeM, ATP assay (Experimental Example 1); conditions: SKOV3, 3D medium FCeM, compound 5 μM, 4 days; DMSO control = 100%; average of two tests
Procedure: A cell proliferation promoting effect when the compound to be used in the present invention was added to a three-dimensional medium was studied. Specifically, precultured (adhesion cultured) SKOV3 cells (human ovarian cancer-derived cell line) were recovered and suspended in a three-dimensional cell culture medium (“FCeM (registered trade mark)” (Nissan chemical corporation)) to prepare a cell suspension. […] The cell suspension seeded in the plate was stood overnight at 37° C., 5% CO2. Then, a DMSO diluted solution (4.44 μL) of the compound to be used in the present invention was added at a final concentration of 5 μM (or two steps of […] and 10 μM) (no stirring after addition). After addition of each compound, the mixtures were stood for 4 days at 37° C., 5% CO2. […] The luminescence intensity (RLU value) was measured by FlexStation3 (manufactured by Molecular Devices), and cell proliferation was evaluated.
The proliferation rate was calculated based on the control (cells added with DMSO without containing the compound to be used in the present invention) as the standard (100%). The values shown in the tables are average values of the results of two tests.

[2] = tested on: Bone marrow-derived human mesenchymal stem cells (BM-hMSC); test: Cells cultured by hanging drop method, ATP assay (Experimental Example 12)
Procedure: (§1) Human epithelial-like cell cancer-derived cell line A431 (manufactured by ATCC) was cultured using 10% FBS and 1% MEM non-essential amino acid solution (MEM NEAA, manufactured by Wako Pure Chemical Industries, Ltd.)-containing EMEM (manufactured by Wako Pure Chemical Industries, Ltd.)). In addition, bone marrow-derived human mesenchymal stem cells (BM-hMSC, manufactured by PromoCell) were cultured using a mesenchymal stem cell proliferation medium (manufactured by PromoCell). Each of the above-mentioned cells in the logarithmic growth phase was washed with PBS, a 0.25 w/v % trypsin-1 mmol/L EDTA (ethylenediaminetetraacetic acid) solution (manufactured by Wako Pure Chemical Industries, Ltd.) was added, and the cells were detached by incubating at 37° C. for 3 min. Each medium was added, the mixture was centrifuged, and the supernatant was removed.
(§2) The cell suspension was seeded by 10 μL in 15 drops on the back surface of the lid of a 3.5 cm dish (manufactured by Falcon, #351008) to form droplets. At this time, as a control, a medium supplemented with DMSO (final concentration of DMSO: 0.05%) was seeded by 10 μL in 15 drops. The lid was returned to a 3.5 cm dish added with 2 mL of PBS, and cultured for 2 days in an incubator at 37° C., 5% CO2. The cultured droplets were collected in a 1.5 mL tube, and the medium was added to a final volume of 150 μL.

[3] = tested on: human epithelial-like cell cancer-derived cell line A431; test: as above
Procedure: as §1, §2

hiPS cell line 253G1 = test: Human pluripotent stem cell (hiPS cell), EZSPHERE plate, ATP assay (Experimental Example 13)
Procedure: hiPS cell line 253G1 (purchased from RIKEN) was cultured on a dish coated with vitronectin VTN-N (manufactured by Thermo Fisher Scientific) using mTeSR1 (registered trade mark) medium (manufactured by STEMCELL Technologies). The above-mentioned cells in the proliferation phase were washed with PBS (manufactured by Fujifilm Corporation Wako Pure Chemical Industries, Ltd.), TrypLE Select (registered trade mark) (manufactured by Thermo Fisher Scientific) was added and the mixture was incubated at 37° C. for 3 min to remove the detaching solution. The medium was added and the cells were detached by pipetting. Thereafter, the supernatant was removed by centrifugation.
The aforementioned cells were suspended in a medium containing 10 μM Y-27632 (manufactured by Fujifilm Corporation Wako Pure Chemical Industries, Ltd.) and seeded in a 96-well EZSPHERE plate (manufactured by AGC TECHNO GLASS CO., LTD., #4860-900) at a cell concentration of 10000 cells/200 μL/well. […] The amount of each compound solution to be added was 2 μL/well. As a control, a DMSO solution dissolved in a medium was added (DMSO final concentration 0.05%). The medium was exchanged by half the volume every day, and each compound solution was also added to make the compound concentration constant.

[4] = tested on: Human umbilical vein endothelial cells; test: Vascular endothelial cell, 3D culture, ATP assay (Experimental Example 14)
Procedure: Human umbilical vein endothelial cells (manufactured by PromoCell) were precultured in Endothelial Cell proliferation Medium (manufactured by PromoCell) medium (single layer culture). The above-mentioned cells in the logarithmic growth phase were washed with PBS, DetachKit (manufactured by PromoCell) was added, and adherent cells were detached by incubating at 37° C. for 3 min. The medium was added and the mixture was centrifuged and resuspended in the same medium.
The aforementioned cells were suspended in respective deacylated gellan gum-containing or not containing media (deacylated gellan gum concentration was 0.015 w/v %), and seeded in a 96 well low attachment U-bottom plate (manufactured by Corning, #4520, deacylated gellan gum-free medium), or a low attachment flat bottom plate (manufactured by Corning, #3474, deacylated gellan gum-containing medium) at a cell concentration of 700-2000 cells/90 μL/well (all 3D culture). […] The amount of each compound solution to be added was 10 μL/well. As a control, a DMSO solution dissolved in a medium was added (DMSO final concentration 0.1%).

[5] = tested on: Cercopithecus aethiops kidney epithelium-derived cell line Vero; test: Animal cell lines, 3D culture, ATP assay (Experimental Example 15); conditions: 4 days
From the text: (§3) Various animal cell lines were precultured (single layer culture) as follows in respective media. Chinese hamster ovary-derived cell line CHO-K1 (manufactured by DS PHARMA BIO MEDICAL, 10% fetal bovine serum (FBS, manufactured by Corning)-containing Ham's F-12 medium (manufactured by Fujifilm Wako Pure Chemical Corporation)), Cercopithecus aethiops kidney epithelium-derived cell line Vero (purchased from JCRB cell bank, 5% FBS-containing Medium 199 medium (manufactured by Life Technologies)). The above-mentioned cells in the logarithmic growth phase were washed with PBS, a 0.25 w/v % trypsin-1 mmol/L EDTA (ethylenediaminetetraacetic acid) solution (manufactured by Fujifilm Wako Pure Chemical Corporation) was added, and adherent cells were detached by incubating at 37° C. for 3 min. Each medium was added and the mixture was centrifuged and resuspended in the same medium.
(§4) The aforementioned various animal cells were suspended in respective deacylated gellan gum-containing or not containing media (deacylated gellan gum concentration was 0.02 w/v % in Ham's F-12 medium, 0.015 w/v % in Medium 199 medium), and seeded in a 96 well low attachment U-bottom plate (manufactured by Corning, #4520, deacylated gellan gum-free medium), or a low attachment flat bottom plate (manufactured by Corning, #3474, deacylated gellan gum-containing medium) at a cell concentration of 700-2000 cells/90 μL/well (all 3D culture). […] The amount of each compound solution to be added was […]. As a control, a DMSO solution dissolved in a medium was added (DMSO final concentration 0.1%). […] When compared with the compound non-addition (control), one showing a value of not more than 119% as -, one showing a value of not less than 120% as ◯, and one showing a value of not less than 150% as ⊚ are shown in the twenty-third table and the twenty-fourth table.

[6] = tested on: Chinese hamster ovary-derived cell line CHO-K1; test: as above; conditions: CHO-K1; low attachment flat bottom plate (deacylated gellan gum-containing medium); 5 μM; 4 days
From the text: as §3, §4

plural animal cell lines = test: Animal cell lines, summary over the cell lines (Experimental Example 15); conditions: animal cell lines under three-dimensional conditions
From the text: as §3, §4

## CCC(=NNC(=O)CNc1ccccc1)c1ccc(O)c(C)c1O [k-1:H-1]
[1]
  proliferation rate (%): 233.26%
[2]; BM-hMSC, hanging drop, 5 μM, 2 days, control = 100%
  cell number (relative value): 186%
[2]; bone marrow-derived human mesenchymal stem cells, hanging drop method
  cell number (in words): showed an effect of increasing the number
[3]; A431 cell line, three-dimensional cell culture by the hanging drop method
  cell number (in words): showed an effect of increasing the number
[3]; A431 cell, hanging drop, 5 μM, 2 days, control = 100%
  cell number (relative value): 252%
hiPS cell line 253G1; hiPS 253G1, EZSPHERE plate, 5 μM, 3 days, RLU of DMSO addition = 100%
  relative value (%): 166%
hiPS cell line 253G1; human pluripotent stem cells under three-dimensional conditions
  proliferation activity (in words): promoted proliferation activity in human pluripotent stem cells
[4]; HUVEC, low attachment U-bottom plate, 5 μM, 4 days, no-addition = 100%
  relative value of RLU (number of viable cells): 820%
[4]; human umbilical vein endothelial cells under three-dimensional conditions
  proliferation activity (in words): promoted proliferation activity in human umbilical vein endothelial cells
[5]; low attachment U-bottom plate, 5 μM
  number of viable cells (RLU), relative value to control (100%): ⊙
[5]; low attachment U-bottom plate, 10 μM
  number of viable cells (RLU), relative value to control (100%): ⊙
[5]; low attachment flat bottom plate (deacylated gellan gum-containing medium), 5 μM
  number of viable cells (RLU), relative value to control (100%): ⊙
[5]; low attachment flat bottom plate (deacylated gellan gum-containing medium), 10 μM
  number of viable cells (RLU), relative value to control (100%): ⊙
[6]
  number of viable cells (RLU), relative value to control (100%): ◯ (one showing a value of not less than 120% as ◯)
Plural animal cell lines
  proliferation activity (in words): promoted proliferation activity in plural animal cell lines
